In US9233143B2, “Medicinal agent for preventing exacerbation of malignant tumor, comprising combination of natriuretic peptide receptor GC-A and GC-B agonists” (National Cerebral and Cardiovascular Center, priority 2011, dated 2016):

Legend:
tumor cells = conditions: reports by Vesely et al.; cited from earlier work
[1] = test system: cancer-associated fibroblasts (CAFs); assay: Changes in the intracellular cGMP level in response to natriuretic peptide stimulus, CAFs; format: cell-based, human; conditions: 1×10^−11 M to 1×10^−6 M, 10 minutes, FIG. 1B
Procedure: For obtaining CAFs (cancer-associated fibroblasts), tissue harvested from a patient having lung cancer surgery was subjected to primary culture after the consent of the patient was obtained. The cells were then cultured in DMEM culture medium containing 10% FCS under 5% CO2 at 37° C., and the cells of the 5th and earlier passages were used.
(§1) The A549 cells were cultured in a 24-well dish at 4×10^4 cells/well, and the culture medium was replaced with DMEM culture medium free from FCS the next day. The CAFs were cultured in a 24-well dish at 1×10^4 cells/well, and the culture medium was replaced with DMEM culture medium containing 1% FCS the next day.
(§2) To these culture media, solutions of hANP, hBNP, and hCNP-22 (final concentration: ten-fold serial dilution from 1×10^−11 M to 1×10^−6 M, the same amount of physiological saline was used as a control) were separately added. After 10 minutes had passed, 400 μL of cooled 70% ethanol (containing 0.1 N hydrochloric acid) was added, and ultrasonication was performed for a short time. The treated solution was lyophilized, and the cGMP level was measured using Cyclic GMP Assay kit (made by Yamasa Corp.).

A549 cells [2] = assay: Changes in the intracellular cGMP level in response to natriuretic peptide stimulus, A549 cells; format: cell-based, human; conditions: 1×10^−11 M to 1×10^−6 M, 10 minutes, FIG. 1A
Procedure: Lung adenocarcinoma cell line, A549 cells, was obtained from ATCC (Manassas, Va.). The cells were cultured in DMEM culture medium (Invitrogen, Carlsbad, Va.) containing 10% FCS under 5% CO2 at 37° C. The amounts of the culture medium were 1.5 mL for each well of a 6-well dish, 400 μL for each well of a 24-well dish, and 150 μL for each well of a 96-well dish. In the Examples below, unless otherwise stated, the same culture medium and culture conditions were adopted.
as §1, §2

[3] = test system: A549 cells co-cultured with CAFs; assay: Co-culture system of cancer cells and CAFs (mRNA of the A549 cells); format: cell-based, human; conditions: each test substance 1 μM
Procedure: In a 6-well dish, the A549 cells were cultured at 1×10^5 cells/well. The culture medium was replaced with DMEM culture medium free from FBS the next day, and the cells were further cultured for 24 hours. In a 6-well dish having a cell culture insert (1.0 μm pore size, made by BD), the CAFs were cultured at 5×10^4 cells/well. The culture medium was replaced with DMEM culture medium containing 1% FBS the next day, and the cells were further cultured for 24 hours. To each culture medium of the two kinds of cells, test substances were separately added to prepare test substance addition groups. Control groups with no test substance were also prepared. After two hours of culture, these were subjected to co-culture. The test substance addition groups were ANP groups containing hANP at a final concentration of 1 μM, CNP groups containing hCNP-22 at a final concentration of 1 μM, and ANP+CNP groups containing both hANP and hCNP-22 each at a final concentration of 1 μM. Each of the groups were prepared by adding the test substance to each culture medium of the two kinds of cells.
On the 6-well dish of A549 cells treated as above, the above cell culture insert with the CAFs was placed to prepare a co-culture experimental model where only the culture media could pass through the cell culture insert. After 24, 48, and 72 hours of culture, total RNA of the A549 cells only was recovered, cDNA was synthesized, and the mRNA levels of E-cadherin, N-cadherin, VEGF-A, PDGF-B, and IL-6 were measured by quantitative RT-PCR (FIGS. 6 to 8). The experiment using ANP alone (ANP groups: FIG. 6), the experiment using CNP alone (CNP groups: FIG. 7), and the experiment using ANP and CNP in combination (ANP+CNP group: FIG. 8) were independently conducted, where control groups were separately set for each experiment.

CAFs = assay: Production of cancer exacerbation factors by CAFs under TGF-β1 stimulus (quantitative RT-PCR); format: cell-based, human; conditions: test substance 1 μM, TGF-β1 0.125-2.0 ng/mL, 24 hours, mRNA level, FIG. 5
Procedure: Using a 6-well dish, the CAFs were cultured at 5×10^4 cells/well, and the culture medium was replaced with DMEM culture medium containing 1% FBS the next day. After 24 hours of culture, the cells were used in the following experiment.
A CNP group (a hCNP-22 solution was added (final concentration: 1 μM)) and a control group (the same amount of physiological saline was added) were prepared, and after 2 hours from the addition (of the hCNP-22 solution or the physiological saline) to the CAFs, TGF-β1 was added so that the final concentration would be 0.125, 0.25, 0.5, 1.0, and 2.0 ng/mL. After 24 hours had passed, total RNA was recovered using TRIZOL total RNA isolation reagent, cDNA was synthesized using reverse transcriptase, and the mRNA levels of VEGF-A, TGF-β1, TNF-α, and IL-6 were measured by quantitative RT-PCR.

A549 cells [4] = assay: EMT induced by TGF-β1 in A549 cells (morphology, quantitative RT-PCR); format: cell-based, human; conditions: for effect of suppressing EMT: concentration of 1 μM, summary of Example 2
Procedure: Using a 6-well dish, the A549 cells were cultured at 1×10^5 cells/well, and the culture medium was replaced with DMEM culture medium free from FBS the next day. After 24 hours of culture, the cells were used in the following experiment.
An ANP group (a hANP solution was added (final concentration: 1 μM)) and a control group (the same amount of physiological saline was added) were prepared, and after 2 hours from the addition (of the hANP solution or the physiological saline) to the A549 cells, TGF-β1 was added so that the final concentration would be 0.125, 0.25, 0.5, 1.0, and 2.0 ng/mL. After 24 hours had passed, the morphological change in the cells was observed under a microscope and photographed (FIG. 2).
Then, total RNA was recovered from the above prepared ANP group and control group using TRIZOL total RNA isolation reagent (made by Invitrogen), cDNA was synthesized using reverse transcriptase, and the mRNA levels of E-cadherin, N-cadherin, VEGF-A, PDGF-B, TNF-α, and IL-6 were measured by quantitative RT-PCR. The mRNA level of each intended gene was calculated as the relative ratio of the mRNA amount of the gene to that of the housekeeping gene 36B4 measured at the same time. In the Examples below, unless otherwise stated, the mRNA levels were obtained through the same calculation.
It is known that in EMT, the expression of E-cadherin decreases while the expression of N-cadherin increases. The expression ratio of the two kinds of cadherin (N-cad/E-cad) is considered to be useful as an indicator of the degree of EMT.

A549 cells and CAFs = assay: Mouse models having transplanted cancer cells and CAFs, administration started after tumor tissue was established (Example 6); format: in vivo; conditions: hCNP-22 alone 2.5 μg/kg/min, started 2 weeks after transplantation, 4 weeks, FIG. 10
Procedure: In this Example and Example 6, 5-week-old male immunodeficient mice (KSN mice, Japan SLC, Inc.) were used. The osmotic pumps used were MODEL2004 (for 28-day administration) made by ALZET (Cupertino, Calif.). A mixed suspension of the A549 cells and the CAFs was prepared using DMEM free from FBS so as to contain the A549 cells at 1×10^6 cells/100 μL and the CAFs at 0.5×10^6 cells/100 μL. The mixed suspension in an amount of 100 μL per mouse was subcutaneously injected in the back of the immunodeficient mice. […] After 2 weeks of observation from the injection of the cell suspension, the mice to which the mixed suspension had been injected were randomly divided into 4 groups (control group, ANP group, CNP group, and ANP+CNP group), and an osmotic pump appropriately adjusted for each group as shown below was subcutaneously implanted to start administration. • Control group and A549 group: physiological saline was administered • ANP group: hANP was administered at 0.5 μg/kg/min • CNP group: hCNP-22 was administered at 2.5 μg/kg/min • ANP+CNP group: hANP was administered at 0.5 μg/kg/min and hCNP-22 was administered at 2.5 μg/kg/min Observation was further continued for 4 weeks after the start of administration, the tumor size at the cell injection site was measured weekly, and tumor volume was calculated in the same way as in Example 5 (FIG. 10).

[5] = A549 cells, test substance 1 μM, mRNA level, FIG. 3

## kalliuretic peptide: peptide in reports by Vesely et al., sequence not likely to contribute to binding to GC-A (SSDRSALLKSKLRALLTAPR; Kaliuretic peptide; UniProt P01160 104-123, looked up)
Tumor cells
  growth-suppressing activity on tumor (cancer) cells: the same or stronger growth-suppressing activity

## hCNP-22: 22-amino acid CNP-22 of human origin (GLSKGCFGLKLDRIGSMSGLGC: SEQ ID NO: 7), GC-B agonist (GLSKGCFGLKLDRIGSMSGLGC; listed as Homo sapiens)
[1]
  cGMP level of the CAFs: increased the cGMP level of the CAFs in a concentration-dependent manner
A549 cells [2]
  intracellular cGMP level of the A549 cells: did not show such increase
[3]; A549 cells co-cultured with CAFs 24, 48, 72 hours, FIGS. 6 to 8
  gene expression of the growth factors (VEGF-A, PDGF-B) and inflammatory cytokine (IL-6) increased in the co-culture: could not suppress
[3]; A549 cells co-cultured with CAFs, FIGS. 6D, 7D, 8D
  expression ratio of N-cadherin/E-cadherin (N-cad/E-cad), indicator of EMT, in the co-culture: did not show any effect
CAFs
  gene expression of the growth factors (VEGF-A, TGF-β1) and the inflammatory cytokines (TNF-α, IL-6) increased by the TGF-β1 stimulus in CAFs: significantly suppressed
A549 cells [4]; A549 cells, test substance 1 μM, 24 hours after TGF-β1, FIG. 2
  morphological change in the cells associated with EMT induced by the TGF-β1 stimulus: the same as those of the control
A549 cells [4]; A549 cells, test substance 1 μM, TGF-β1 0.125-2.0 ng/mL, 24 hours, mRNA level, FIG. 3
  gene expression of the growth factors (VEGF-A, PDGF-B) and the inflammatory cytokines (TNF-α, IL-6) increased by EMT induced by the TGF-β1 stimulus: the same as those of the control
A549 cells [4]; [5]
  decrease in the expression of E-cadherin induced by the TGF-β1 stimulus: the same as those of the control
  increase in the expression of N-cadherin induced by the TGF-β1 stimulus: the same as those of the control
A549 cells [4]
  effect of suppressing EMT: did not show such an effect at all
A549 cells and CAFs
  tumor growth as compared with the control group: showed an effect of tumor growth suppression

## long acting natriuretic peptide: peptide in reports by Vesely et al., sequence not likely to contribute to binding to GC-A (NPMYNAVSNADLMDFKNLLDHLEEKMPLED; Long-acting natriuretic peptide; UniProt P01160 26-55, looked up)
Tumor cells
  growth-suppressing activity on tumor (cancer) cells: the same or stronger growth-suppressing activity

## hBNP: 32-amino acid BNP of human origin (SPKMVQGSGCFGRKMDRISSSSGLGCKVLRRH: SEQ ID NO: 3), GC-A agonist
Tumor cells
  growth-suppressing activity on tumor (cancer) cells: does not have such a growth-suppressing activity
[1]
  cGMP level of the CAFs: did not show such an action
A549 cells [2]
  intracellular cGMP level of the A549 cells: increased the intracellular cGMP level of the A549 cells in a concentration-dependent manner
CAFs
  gene expression of the growth factors (VEGF-A, TGF-β1) and the inflammatory cytokines (TNF-α, IL-6) increased by the TGF-β1 stimulus in CAFs: did not show any effect on CAFs
A549 cells [4]
  effect of suppressing EMT: significantly suppressing EMT

## vessel dilator: peptide in reports by Vesely et al., sequence not likely to contribute to binding to GC-A (EVVPPQVLSEPNEEAGAALSPLPEVPPWTGEVSPAQR; Vessel dilator; UniProt P01160 56-92, looked up)
Tumor cells
  growth-suppressing activity on tumor (cancer) cells: the same or stronger growth-suppressing activity
